Among the data in patent publication US10292985B2, “TGF beta receptor antagonists” (BRISTOL-MYERS SQUIBB COMPANY, priority 2015, dated 2019) are IC50 values, retold here.

pIC50: −log10 of the molar value.

Chain of HIS-TGFβR1 T204D (P36897 34-503 T204D): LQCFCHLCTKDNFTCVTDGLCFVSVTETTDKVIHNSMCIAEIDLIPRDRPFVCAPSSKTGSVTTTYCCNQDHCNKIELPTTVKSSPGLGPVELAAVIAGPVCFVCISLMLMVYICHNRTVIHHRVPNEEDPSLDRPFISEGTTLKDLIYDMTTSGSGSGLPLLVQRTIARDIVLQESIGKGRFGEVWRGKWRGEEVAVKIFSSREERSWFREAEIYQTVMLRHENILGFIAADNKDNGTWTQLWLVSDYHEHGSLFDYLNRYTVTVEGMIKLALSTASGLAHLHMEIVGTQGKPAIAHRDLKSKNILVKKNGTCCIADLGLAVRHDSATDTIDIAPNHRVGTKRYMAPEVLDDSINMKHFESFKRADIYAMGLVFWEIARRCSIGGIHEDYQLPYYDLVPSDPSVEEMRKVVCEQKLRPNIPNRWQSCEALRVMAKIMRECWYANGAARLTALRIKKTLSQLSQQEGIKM

The first assay deals with HIS-TGFβR1 T204D (Homo sapiens (Human), UniProt P36897, T204D). In words: HTRF probe-displacement assay, TGFβR1. The class given is binding. As to conditions: GST tagged wild type protein used instead of HIS-tagged protein (starred values). The method, then:
Em: 520 nm/495 nm). […] Compounds were dissolved at 10 mM in dimethylsulfoxide (DMSO) and evaluated at eleven concentrations. IC50 values were derived by non-linear regression analysis.
A general note: In TR-FRET formats the signal depends on donor and acceptor labels being close together.
By pIC50 is commonly meant −log10 of the IC50, conventionally taken in molar units. The low end stands for a large IC50, the high end for a small IC50. Molecule `Cc1ccc(F)c(-c2nc(-n3ccc4cnccc43)c3cccn3n2)n1` [Example 4, 3-fluoro-6-methyl-2-(4-{1H-pyrrolo[3,2-c]pyridin-1-yl}pyrrolo[2,1-f][1,2,4]triazin-2-yl)pyridine] had a negative-log IC50 (pIC50) of 7.74.

As for `Cc1cccc(-c2nc(Nc3ccnc4ccc(Br)cc34)c3cccn3n2)n1` [Example 12, 6-bromo-N-[2-(6-methylpyridin-2-yl)pyrrolo[2,1-f][1,2,4]triazin-4-yl]quinolin-4-amine], the pIC50 was 6.55.

On to `Cc1cccc(-c2nc(Nc3ccnc4ccc(C(F)(F)F)cc34)c3cccn3n2)n1` [Example 16, N-[2-(6-methylpyridin-2-yl)pyrrolo[2,1-f][1,2,4]triazin-4-yl]-6-(trifluoromethyl)quinolin-4-amine], for which the pIC50 is 6.03. Compared with the last molecule, the pIC50 is 0.52 log units lower.

As to `CS(=O)(=O)Nc1cccc(-c2nc(-n3ccc4cnccc43)c3cccn3n2)n1` [Example 25, N-[6-(4-{1H-pyrrolo[3,2-c]pyridin-1-yl}pyrrolo[2,1-f][1,2,4]triazin-2-yl)pyridin-2-yl]methanesulfonamide], the pIC50 was 7.48.

The assay is the same for the next values; noted with them: HIS-TGFβR1 T204D, 1 nM; 1 hour at room temperature.
For the molecule `FC(F)(F)c1cccc(-c2nc(Nc3ccnc4cccnc34)c3cccn3n2)n1` [Example 2, N-{2-[6-(trifluoromethyl)pyridin-2-yl]pyrrolo[2,1-f][1,2,4]triazin-4-yl}-1,5-naphthyridin-4-amine], the pIC50 was 7.70.

In turn, `COc1cccc(-c2nc(Nc3ccc4ncccc4c3)c3cccn3n2)n1` [Example 3, N-(2-(6-methoxypyridin-2-yl)pyrrolo[2,1-f][1,2,4]triazin-4-yl)quinolin-6-amine] showed a pIC50 of 4.89.

Take `Cc1cccc(-c2nc(-n3ccc4cnccc43)c3cccn3n2)n1` [Example 5, 2-methyl-6-(4-{1H-pyrrolo[3,2-c]pyridin-1-yl}pyrrolo[2,1-f][1,2,4]triazin-2-yl)pyridine]: the pIC50 was 9.02.

The molecule `Fc1cccc(-c2nc(-n3ccc4cnccc43)c3cccn3n2)n1` [Example 6, 2-fluoro-6-(4-{1H-pyrrolo[3,2-c]pyridin-1-yl}pyrrolo[2,1-f][1,2,4]triazin-2-yl)pyridine] had a pIC50 of 8.85.

In turn, `Cn1cnc2ccc(Nc3nc(-c4ccccn4)nn4cccc34)cc21` [Example 7, 1-methyl-N-[2-(pyridin-2-yl)pyrrolo[2,1-f][1,2,4]triazin-4-yl]-1H-1,3-benzodiazol-6-amine] had a pIC50 of 6.62.

Turning to `c1ccc(-c2nc(-n3ccc4cnccc43)c3cccn3n2)nc1` [Example 8, 2-(4-{1H-pyrrolo[3,2-c]pyridin-1-yl}pyrrolo[2,1-f][1,2,4]triazin-2-yl)pyridine], the pIC50 was 8.96. Compared with the last molecule, the pIC50 is 2.34 log units higher.

Molecule `c1ccc(-c2nc(-n3cnc4cnccc43)c3cccn3n2)nc1` [Example 9, 2-(4-{1H-imidazo[4,5-c]pyridin-1-yl}pyrrolo[2,1-f][1,2,4]triazin-2-yl)pyridine] had a negative logarithm of the IC50 (pIC50) of 8.29.

`c1ccc(-c2nc(-n3ccc4ccncc43)c3cccn3n2)nc1` [Example 10, 2-(4-{1H-pyrrolo[2,3-c]pyridin-1-yl}pyrrolo[2,1-f][1,2,4]triazin-2-yl)pyridine]: the negative logarithm of the IC50 (pIC50) is 6.51.

Molecule `COc1ccc2nccc(Nc3nc(-c4cccc(C)n4)nn4cccc34)c2c1` [Example 11, 6-methoxy-N-[2-(6-methylpyridin-2-yl)pyrrolo[2,1-f][1,2,4]triazin-4-yl]quinolin-4-amine] had a pIC50 of 8.19.

`COc1ccc2c(Nc3nc(-c4cccc(C)n4)nn4cccc34)ccnc2c1` [Example 13, 7-methoxy-N-[2-(6-methylpyridin-2-yl)pyrrolo[2,1-f][1,2,4]triazin-4-yl]quinolin-4-amine]: the pIC50 was 8.96.

In turn, `Cc1cccc(-c2nc(Nc3ccnc4ccc(F)cc34)c3cccn3n2)n1` [Example 14, 6-fluoro-N-[2-(6-methylpyridin-2-yl)pyrrolo[2,1-f][1,2,4]triazin-4-yl]quinolin-4-amine] gave a pIC50 of 8.18.

`Cc1cccc(-c2nc(Nc3ccnc4ccc(Cl)cc34)c3cccn3n2)n1` [Example 15, 6-chloro-N-[2-(6-methylpyridin-2-yl)pyrrolo[2,1-f][1,2,4]triazin-4-yl]quinolin-4-amine] gave a pIC50 of 8.33. This pIC50 and that of the molecule before are within 0.2 log units of each other.

For `Cc1cccc(-c2nc(Nc3ccnc4cc(C(F)(F)F)ccc34)c3cccn3n2)n1` [Example 17, N-[2-(6-methylpyridin-2-yl)pyrrolo[2,1-f][1,2,4]triazin-4-yl]-7-(trifluoromethyl)quinolin-4-amine], the pIC50 is 8.85.

With `Cc1cccc(-c2nc(Nc3ccnc4ccncc34)c3cccn3n2)n1` [Example 18, N-[2-(6-methylpyridin-2-yl)pyrrolo[2,1-f][1,2,4]triazin-4-yl]-1,6-naphthyridin-4-amine], the pIC50 was 8.36. Compared with the last molecule, the pIC50 is 0.49 log units lower.

`Cc1cccc(-c2nc(Nc3ccnc4cccnc34)c3cccn3n2)n1` [Example 19, N-[2-(6-methylpyridin-2-yl)pyrrolo[2,1-f][1,2,4]triazin-4-yl]-1,5-naphthyridin-4-amine] had a pIC50 of 8.29. This pIC50 and that of the molecule before are within 0.2 log units of each other.

`COc1ccc2c(Nc3nc(-c4cccc(C(F)(F)F)n4)nn4cccc34)ccnc2c1` [Example 20, 7-methoxy-N-{2-[6-(trifluoromethyl)pyridin-2-yl]pyrrolo[2,1-f][1,2,4]triazin-4-yl}quinolin-4-amine] gave a pIC50 of 8.38.

As for `COc1ccc2c(Nc3nc(-c4cccc(C(F)F)n4)nn4cccc34)ccnc2c1` [Example 21, N-{2-[6-(difluoromethyl)pyridin-2-yl]pyrrolo[2,1-f][1,2,4]triazin-4-yl}-7-methoxyquinolin-4-amine], the pIC50 is 8.74.

`FC(F)c1cccc(-c2nc(Nc3ccnc4cccnc34)c3cccn3n2)n1` [Example 22, N-{2-[6-(difluoromethyl)pyridin-2-yl]pyrrolo[2,1-f][1,2,4]triazin-4-yl}-1,5-napthyridin-4-amine] had a negative logarithm of the IC50 (pIC50) of 8.24.

`Cc1nc(-c2nc(-n3ccc4cnccc43)c3cccn3n2)ccc1F` [Example 23, 3-fluoro-2-methyl-6-(4-{1H-pyrrolo[3,2-c]pyridin-1-yl}pyrrolo[2,1-f][1,2,4]triazin-2-yl)pyridine] had a pIC50 of 8.89.

In turn, `COc1cccc(-c2nc(-n3ccc4cnccc43)c3c(Cl)ccn3n2)n1` [Example 24, 2-(5-chloro-4-{1H-pyrrolo[3,2-c]pyridin-1-yl}pyrrolo[2,1-f][1,2,4]triazin-2-yl)-6-methoxypyridine] gave a pIC50 of 8.00.

In turn, `CCc1cccc(-c2nc(-n3ccc4cnccc43)c3cccn3n2)n1` [Example 26, 2-ethyl-6-(4-{1H-pyrrolo[3,2-c]pyridin-1-yl}pyrrolo[2,1-f][1,2,4]triazin-2-yl)pyridine] showed a pIC50 of 8.92.

In turn, `c1cc(-c2nc(-n3ccc4cnccc43)c3cccn3n2)nc(C2CC2)c1` [Example 27, 2-cyclopropyl-6-(4-{1H-pyrrolo[3,2-c]pyridin-1-yl}pyrrolo[2,1-f][1,2,4]triazin-2-yl)pyridine] had a pIC50 of 8.89.

For the molecule `FC(F)(F)c1cccc(-c2nc(-n3ccc4cnccc43)c3cccn3n2)n1` [Example 28, 2-(4-{1H-pyrrolo[3,2-c]pyridin-1-yl}pyrrolo[2,1-f][1,2,4]triazin-2-yl)-6-(trifluoromethyl)pyridine], the pIC50 is 8.42.

For `FC(F)c1cccc(-c2nc(-n3ccc4cnccc43)c3cccn3n2)n1` [Example 29, 2-(difluoromethyl)-6-(4-{1H-pyrrolo[3,2-c]pyridin-1-yl}pyrrolo[2,1-f][1,2,4]triazin-2-yl)pyridine], the pIC50 is 8.54.

Take `COc1cccc(-c2nc(-n3ncc4cnccc43)c3cccn3n2)n1` [Example 30, 2-methoxy-6-(4-{1H-pyrazolo[4,3-c]pyridin-1-yl}pyrrolo[2,1-f][1,2,4]triazin-2-yl)pyridine]: the pIC50 is 7.17.

In turn, `Clc1cccc(-c2nc(-n3ccc4cnccc43)c3cccn3n2)n1` [Example 31, 2-chloro-6-(4-{1H-pyrrolo[3,2-c]pyridin-1}-ylpyrrolo[2,1-f][1,2,4]triazin-2-yl)pyridine] gave a pIC50 of 8.33.

With `COc1cccc(-c2nc(-n3ccc4cnccc43)c3cccn3n2)n1` [Example 32, 2-methoxy-6-(4-{1H-pyrrolo[3,2-c]pyridin-1-yl}pyrrolo[2,1-f][1,2,4]triazin-2-yl)pyridine], the pIC50 is 8.21.

Turning to `Cc1ccc(-c2nc(-n3ccc4cnccc43)c3cccn3n2)nc1` [Example 34, 5-methyl-2-(4-{1H-pyrrolo[3,2-c]pyridin-1-yl}pyrrolo[2,1-f][1,2,4]triazin-2-yl)pyridine], the pIC50 was 7.92.

In turn, `CSc1nccc(-c2nc(-n3ccc4cnccc43)c3cccn3n2)n1` [Example 35, 2-(methylsulfanyl)-4-(4-{1H-pyrrolo[3,2-c]pyridin-1-yl}pyrrolo[2,1-f][1,2,4]triazin-2-yl)pyrimidine] had a pIC50 of 8.66.

For `Cc1cccc(-c2nc(Nc3ccc4[nH]ncc4c3)c3cccn3n2)n1` [Example 36, N-[2-(6-methylpyridin-2-yl)pyrrolo[2,1-f][1,2,4]triazin-4-yl]-1H-indazol-5-amine], the pIC50 was 8.82.
